According to patent publication US6147077A, “2R,4S-hydroxyitraconazole isomers” (priority 1999, dated 2000):
Values after ≈ are worked out from the molar mass of the structure shown. Where two headings read alike, the source gives them in different places.

Experiments:
[1] = Water solubility of hydroxyitraconazole isomers and itraconazole; assay type: physicochemical; conditions: for solubility: water; for solubility / Water solubility: LOD: 5000 μV*sec, order-of-magnitude accuracy below LOD, 3+4 and 11+12 ±10%; for Area: λmax = 260 nm, LOD 5000 μV*sec
Experimental: The isomers of cis hydroxyitraconazole were tested for water solubility against a […] standard solution of hydroxyitraconazole. […] The values for 3+4 and 11+12 are barely above the LOD, giving accuracies of ±10%. In every case, solubilities were in the 10^1 to 10^2 ng/ml range.

[2] = system: S. cerevisae; test: Antifungal MIC, S. cerevisae; assay type: cell-based, Saccharomyces cerevisiae; conditions: S. cerevisae (Table 3); for MIC: Saccharomyces cerevisiae
Experimental: [The source words this procedure for another organism and reports this organism under the same test.] (§1) A 10 mL tube containing 4 mL of Sabourauds dextrose broth was inoculated with 1 colony of Candida albicans picked from a plate of pure culture. The strain was ordered from the American Type Culture Collection (ATCC). The organism was grown for 4 hours at 30° C. while shaking at 150 RPM. While the organism was growing, samples of hydroxy-itraconazoles were solubilized to a concentration of 10 mg/mL in DMSO. Each sample was then diluted 1:10 to make 1 mg/mL samples or 1000 μg/mL. These samples were then diluted by serial 2-fold dilutions to produce samples now containing 1000, 500, 250, 125, 62.5, 31.25, 15.6 μg/mL. […] At 4 hours of growth time the Candida albicans was diluted to a 0.5 McFarland standard representing about 10^5 -10^6 cells/mL and 1 μL of this inoculum placed into each test well of the microtiter dish. The dish was then covered and incubated at 30° C. for 16 hours.

[3] = system: A. fumigatis; test: Antifungal MIC, A. fumigatis; assay type: cell-based; conditions: A. fumigatis (Table 3)
Experimental: [The source words this procedure for another organism and reports this organism under the same test.] as §1

[4] = system: Candida albicans; test: Antifungal MIC, Candida albicans; assay type: cell-based
Experimental: as §1

[5] = system: Sacchromyces cerevisae; test: Kirby-Bauer Testing, Saccharomyces cerevisiae; assay type: cell-based; conditions: 10 μl of 10 mg/mL per disk, 30° C., 16 hours; for zone of inhibition at 10000 µg/mL: Saccharomyces cerevisiae
Experimental: The hydroxyitraconazole isomers were tested for biological activity according three different assays.
Actively growing cultures of Candida albicans, Cryptococcus neoformens and Saccharomyces cerevisiae were prepared as described above. The cultures were diluted to a 0.5 McFarland standard and swabbed onto a 150 mm Sabouraud Dextrose agar plates. Paper disks (7 mm) were placed onto the agar plates using a disk dispenser. […] The plates were then incubated at 30° C. for 16 hours. Zones of inhibition were then measured in mm.

[6] = molecular target: T1, cytochrome P450 3A4 (Homo sapiens, UniProt P08684); test: Inhibition of cytochrome P450 3A4 (testosterone 6β-hydroxylase activity); conditions: for IC50/MIC ratio in words: therapeutic index, 3A4 vs C. albicans 44203
[7] = system: Cr. neoformens; test: Antifungal MIC, Cr. neoformens; assay type: cell-based, Cryptococcus neoformens; conditions: Cr. neoformens (Table 3); for MIC: Cryptococcus
Experimental: [The source words this procedure for another organism and reports this organism under the same test.] as §1

[8] = molecular target: T1, cytochrome P450 3A4
Experimental: The IC50 values were determined by the appearance of 6β-hydroxytestosterone after incubation with testosterone. […] Of greater clinical significance is the ratio of the IC50 for 3A4 to the MIC for C. albicans 44203.

[9] = system: delayed rectifier (IK); conditions: cited from earlier work; for Effect on cardiac repolarization: Torsades de Pointes side effect
[10] = Water solubility of hydroxyitraconazole phosphate isomers (NMG salts); assay type: physicochemical; conditions: Table 8; for solubility: water
Excerpt: The water solubility of the NMG salts of the phosphate esters of isomers 1, 2 and 3+4 were investigated and compared to the corresponding hydroxyitraconazole isomers 1, 2 and 3+4. The phosphate esters were as much as 10^7 times more water soluble than the corresponding hydroxyitraconazole isomer.

[11] = Candida albicans, C. albicans strain 28516 (Table 3), read-out: Antifungal MIC
[12] = Candida albicans, C. albicans strain 28815 (Table 3), read-out: Antifungal MIC
[13] = Candida albicans, C. albicans strain 44203 (Table 3), read-out: Antifungal MIC
[14] = Candida albicans, C. albicans strain 44373 (Table 3), read-out: Antifungal MIC
[15] = Candida albicans, Candida albicans strain 44203 (Table 4), read-out: MIC

T1 sequence (P08684 whole entry): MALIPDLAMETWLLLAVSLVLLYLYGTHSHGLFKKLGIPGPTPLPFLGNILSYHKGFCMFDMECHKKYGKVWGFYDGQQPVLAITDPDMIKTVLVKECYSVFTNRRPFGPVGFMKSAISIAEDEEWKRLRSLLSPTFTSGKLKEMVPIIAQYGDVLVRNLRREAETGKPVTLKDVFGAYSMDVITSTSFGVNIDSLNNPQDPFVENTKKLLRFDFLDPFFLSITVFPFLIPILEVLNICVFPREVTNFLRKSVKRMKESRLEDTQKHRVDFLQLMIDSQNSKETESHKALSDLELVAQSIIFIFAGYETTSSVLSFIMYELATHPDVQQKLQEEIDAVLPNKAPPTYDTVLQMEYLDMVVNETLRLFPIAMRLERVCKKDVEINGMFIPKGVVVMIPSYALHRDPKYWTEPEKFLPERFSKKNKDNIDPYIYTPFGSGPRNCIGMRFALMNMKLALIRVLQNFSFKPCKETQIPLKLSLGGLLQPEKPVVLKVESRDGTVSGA

## CC(O)C(C)n1ncn(-c2ccc(N3CCN(c4ccc(OC[C@@H]5CO[C@@](Cn6cncn6)(c6ccc(Cl)cc6Cl)O5)cc4)CC3)cc2)c1=O (stereo partly shown) [11 + 12]
[1]
  solubility: 0.59 µg/mL
[2]
  MIC: 0.195 µg/mL
[3]
  MIC: 0.137 µg/mL
[4]; Candida albicans, C. albicans strain 10231 (Table 3), read-out: Antifungal MIC
  MIC: 1 µg/mL
[4]; [11]
  MIC: 0.25 µg/mL
[4]; [12]
  MIC: 0.125 µg/mL
[4]; [13]
  MIC: 0.05 µg/mL
[4]; [14]
  MIC: 0.5 µg/mL
[4]; Candida albicans, C. albicans strain 62342 (Table 3), read-out: Antifungal MIC
  MIC: 0.5 µg/mL
[4]; [15]
  MIC: 0.05 µg/mL
[5]
  zone of inhibition at 10000 µg/mL: 25 mm
[6]
  selectivity ratio: 6.5
[7]
  MIC: 0.78 µg/mL

## CC[C@@H](C)n1ncn(-c2ccc(N3CCN(c4ccc(OC[C@@H]5CO[C@@](Cn6cncn6)(c6ccc(Cl)cc6Cl)O5)cc4)CC3)cc2)c1=O [Compound 8, reference compound]
[4]; Candida albicans
  MIC: < 0.078 µg/mL

## CCC(C)n1ncn(-c2ccc(N3CCN(c4ccc(OC[C@@H]5CO[C@@](Cn6cncn6)(c6ccc(Cl)cc6Cl)O5)cc4)CC3)cc2)c1=O (stereo partly shown) [7 + 8]
[4]; Candida albicans
  MIC: < 0.078 µg/mL

## CC[C@H](C)n1ncn(-c2ccc(N3CCN(c4ccc(OC[C@@H]5CO[C@@](Cn6cncn6)(c6ccc(Cl)cc6Cl)O5)cc4)CC3)cc2)c1=O [Compound 7, reference compound]
[4]; Candida albicans
  MIC: < 0.078 µg/mL

## CC(O)C(C)n1ncn(-c2ccc(N3CCN(c4ccc(OC[C@H]5CO[C@](Cn6cncn6)(c6ccc(Cl)cc6Cl)O5)cc4)CC3)cc2)c1=O (stereo partly shown) [Compound 3 + 4]
[8]
  Inhibition of P450 3A4 in words: notably less inhibition of the P450 3A4 enzyme than the 2S,4R isomers
[6]
  IC50/MIC ratio in words: excellent results

## C=C[C@H]1C[N@@]2CC[C@H]1C[C@@H]2[C@@H](O)c1ccnc2ccc(OC)cc12 [quinidine]
[9]
  Effect on cardiac repolarization: prolongation of cardiac repolarization
  Block of delayed rectifier (IK): ability to block a cellular potassium channel called the delayed rectifier (IK)

## C[C@H](OP(=O)(O)O)[C@@H](C)n1ncn(-c2ccc(N3CCN(c4ccc(OC[C@H]5CO[C@](Cn6cncn6)(c6ccc(Cl)cc6Cl)O5)cc4)CC3)cc2)c1=O [2-PO3 --NMG2]
[10]
  solubility: > 100000 µg/mL

## CC(C)NCC(O)c1ccc(NS(C)(=O)=O)cc1 (stereo not shown) [sotalol]
[9]
  Effect on cardiac repolarization: prolongation of cardiac repolarization
  Block of delayed rectifier (IK): ability to block a cellular potassium channel called the delayed rectifier (IK)

## C[C@@H](O)[C@H](C)n1ncn(-c2ccc(N3CCN(c4ccc(OC[C@@H]5CO[C@@](Cn6cncn6)(c6ccc(Cl)cc6Cl)O5)cc4)CC3)cc2)c1=O [Compound 9]
[1]
  solubility: 0.045 µg/mL (≈ 0.0624 µM)
[2]
  MIC: 0.195 µg/mL (≈ 0.27 µM)
[3]
  MIC: 0.137 µg/mL (≈ 0.19 µM)
[4]; [11]
  MIC: 0.25 µg/mL (≈ 0.346 µM)
[4]; [12]
  MIC: 0.125 µg/mL (≈ 0.173 µM)
[4]; [13]
  MIC: 0.05 µg/mL (≈ 0.0693 µM)
[4]; [14]
  MIC: 0.25 µg/mL (≈ 0.346 µM)
[4]; [15]
  MIC: 0.05 µg/mL (≈ 0.0693 µM)
[5]
  zone of inhibition at 10000 µg/mL: 20 mm
[6]
  selectivity ratio: 7.4
[7]
  MIC: 0.78 µg/mL (≈ 1.08 µM)

## CC[C@@H](C)n1ncn(-c2ccc(N3CCN(c4ccc(OC[C@H]5CO[C@](Cn6cncn6)(c6ccc(Cl)cc6Cl)O5)cc4)CC3)cc2)c1=O [Compound 6, reference compound]
[4]; Candida albicans
  MIC: 0.312 µg/mL (≈ 0.443 µM)

## (2S,4R)-4-[4-[4-[4-[[2,4-dichlorophenyl)-2-(1H-1,2,4-triazol-1-ylmethyl)-1,3-dioxolan-4-yl]methoxy]phenyl]-1-piperazinyl]-2,4-dihydro-2-[(1S,2R)-(2-hydroxy-1-methylpropyl)]-3H-1,2,4,-triazol-3-one [Compound 2]
[1]
  Water solubility: not detected
  Area: not even detected
[2]
  Antifungal MIC: 0.39 µg/mL
[10]
  Water solubility: < 0.01 µg/mL
[3]
  Antifungal MIC: 0.137 µg/mL
[4]; C. albicans strain 10231 (Table 3)
  Antifungal MIC: 0.5 µg/mL
[4]; C. albicans strain 28516 (Table 3)
  Antifungal MIC: 0.25 µg/mL
[4]; C. albicans strain 28815 (Table 3)
  Antifungal MIC: 0.5 µg/mL
[4]; C. albicans strain 44203 (Table 3)
  Antifungal MIC: 0.05 µg/mL
[4]; C. albicans strain 44373 (Table 3)
  Antifungal MIC: 0.25 µg/mL
[4]; C. albicans strain 62342 (Table 3)
  Antifungal MIC: 1.0 µg/mL
[4]; Candida albicans strain 44203 (Table 4)
  MIC: 0.05 µg/mL
[8]
  IC50 /MIC Ratio: 70
[5]
  Kirby-Bauer zone of inhibition: 20 mm
[6]; testosterone 6β-hydroxylase activity
  Inhibition of P450 3A4 in words: notably less inhibition of the P450 3A4 enzyme than the 2S,4R isomers
[6]
  IC50/MIC ratio in words: excellent results
[7]
  Antifungal MIC: 0.39 µg/mL

## CC(OP(=O)(O)O)C(C)n1ncn(-c2ccc(N3CCN(c4ccc(OC[C@H]5CO[C@](Cn6cncn6)(c6ccc(Cl)cc6Cl)O5)cc4)CC3)cc2)c1=O (stereo partly shown) [3 + 4-PO3 --NMG2]
[10]
  solubility: > 100000 µg/mL

## CC[C@H](C)n1ncn(-c2ccc(N3CCN(c4ccc(OC[C@H]5CO[C@](Cn6cncn6)(c6ccc(Cl)cc6Cl)O5)cc4)CC3)cc2)c1=O [Compound 5, reference compound]
[4]; Candida albicans
  MIC: 0.312 µg/mL (≈ 0.443 µM)

## C[C@H](OS(=O)(=O)O)[C@@H](C)n1ncn(-c2ccc(N3CCN(c4ccc(OC[C@H]5CO[C@](Cn6cncn6)(c6ccc(Cl)cc6Cl)O5)cc4)CC3)cc2)c1=O [Compound 2-sulfate]
[4]; Candida albicans, C. albicans (Table 7, esters), read-out: Antifungal MIC
  MIC: 6.25 µg/mL (≈ 7.8 µM)

## C[C@H](O)[C@@H](C)n1ncn(-c2ccc(N3CCN(c4ccc(OC[C@@H]5CO[C@@](Cn6cncn6)(c6ccc(Cl)cc6Cl)O5)cc4)CC3)cc2)c1=O [Compound 10]
[1]
  Water solubility: not detected
  Area: not even detected
[2]
  MIC: 0.195 µg/mL (≈ 0.27 µM)
[3]
  MIC: 0.137 µg/mL (≈ 0.19 µM)
[4]; [11]
  MIC: 0.25 µg/mL (≈ 0.346 µM)
[4]; [12]
  MIC: 0.125 µg/mL (≈ 0.173 µM)
[4]; [13]
  MIC: 0.025 µg/mL (≈ 0.0346 µM)
[4]; [14]
  MIC: 0.25 µg/mL (≈ 0.346 µM)
[4]; [15]
  MIC: 0.025 µg/mL (≈ 0.0346 µM)
[5]
  zone of inhibition at 10000 µg/mL: 22 mm
[6]
  selectivity ratio: 19
[7]
  MIC: 0.78 µg/mL (≈ 1.08 µM)

## CC(O)C(C)n1ncn(-c2ccc(N3CCN(c4ccc(OC[C@H]5CO[C@](Cn6cncn6)(c6ccc(Cl)cc6Cl)O5)cc4)CC3)cc2)c1=O (stereo partly shown) [3 + 4]
[1]
  solubility: 1.97 µg/mL
[10]
  solubility: 2 µg/mL
[4]; [15]
  MIC: 0.1 µg/mL
[5]
  zone of inhibition at 10000 µg/mL: 23 mm
[6]
  selectivity ratio: 24

## CCC(C)n1ncn(-c2ccc(N3CCN(c4ccc(OC[C@H]5CO[C@](Cn6cncn6)(c6ccc(Cl)cc6Cl)O5)cc4)CC3)cc2)c1=O (stereo partly shown) [5 + 6]
[4]; Candida albicans
  MIC: 0.156 µg/mL

## C[C@@H](OP(=O)(O)O)[C@H](C)n1ncn(-c2ccc(N3CCN(c4ccc(OC[C@H]5CO[C@](Cn6cncn6)(c6ccc(Cl)cc6Cl)O5)cc4)CC3)cc2)c1=O [1-PO3 --NMG2]
[10]
  solubility: > 100000 µg/mL

## CCN(CC)CCNC(=O)c1ccc(NC(C)=O)cc1 [acetyl-procainamide]
[9]
  Effect on cardiac repolarization: prolongation of cardiac repolarization
  Block of delayed rectifier (IK): ability to block a cellular potassium channel called the delayed rectifier (IK)
